Experimental data published in patent US20230382888A1, “HDAC INHIBITOR SOLID STATE FORMS” (Viracta Subsidiary, Inc., priority 2020, published 2023).
In brackets after ≈: the same amount, converted by molar mass. Entries after “also recorded” stand apart in the source; their conditions may differ. Structures can show the parent of a compound that is named as a salt.

What was measured:
[1] = Static storage stability at elevated temperature/humidity (XRPD, HPLC); format: physicochemical; settings: for Solid form by XRPD after static storage: 7 days (1 week); for Appearance after static storage / HPLC purity after static storage: 1 week
[2] = Gravimetric vapour sorption (GVS); format: physicochemical; settings: for Water uptake, first sorption cycle: 40-90% RH; for Starting water content in GVS: at 40% RH; for XRPD post-GVS (solid form): residue after GVS; for Hygroscopicity by GVS: 25° C.
Method: Sorption isotherms were obtained using a SMS DVS Intrinsic moisture sorption analyser, controlled by DVS Intrinsic Control software. The sample temperature was maintained at 25° C. by the instrument controls. The humidity was controlled by mixing streams of dry and wet nitrogen, with a total flow rate of 200 ml/min. The relative humidity was measured by a calibrated Rotronic probe (dynamic range of 1.0 — 100% RH), located near the sample. The weight change, (mass relaxation) of the sample as a function of % RH was constantly monitored by a microbalance (accuracy ±0.005 mg). Typically, 20-30 mg of sample was placed in a tared mesh stainless steel basket under ambient conditions. The sample was loaded and unloaded at 40% RH and 25° C. (typical room conditions). A moisture sorption isotherm was performed as outlined below (2 scans per complete cycle). The standard isotherm was performed at 25° C. at 10% RH intervals over a 0-90% RH range. Typically, a double cycle (4 scans) was carried out. Data analysis was carried out within Microsoft Excel using the DVS Analysis Suite. [table]

[3] = format: physicochemical
From the text: There was insufficient residue to characterize these further.

[4] = Intrinsic dissolution rate (IDR) in FaSSGF; format: physicochemical; settings: Fasted State Simulated Gastric Fluid
[5] = Thermodynamic aqueous solubility; format: physicochemical; settings: for pH of saturated solution: water, after 24 hours equilibration at 25° C.
Method: Aqueous solubility was determined by suspending sufficient compound in 0.5 ml deionized water to give a maximum final concentration of 40 mg/ml of the parent free-form of the compound. The suspension was equilibrated at 25° C., on a Heidolph plate shaker set to 750 rpm for 24 hours. After equilibration, the appearance was noted and the pH of the saturated solution was measured. Samples forming suspensions were centrifuged for 4 min at 13,500 rpm. Samples were then filtered through a glass fiber C filter (particle retention 1.2 μm), before dilution with H2 O as appropriate. Quantitation was by HPLC (see Table 2 for parameters) with reference to a standard solution of approximately 0.15 mg/ml in DMSO. Different volumes of the standard, diluted and undiluted sample solutions were injected. The solubility was calculated using the peak areas determined by integration of the peak found at the same retention time as the principal peak in the standard injection. Analysis was performed on an Agilent HP1100/Infinity II 1260 series system equipped with a diode array detector and using OpenLAB software.

O=C(NO)c1cnc(N2CC3C(C2)C3NCc2ccc3cc(F)ccc3n2)nc1 (stereo not shown) [Mesylate Form 7, N-hydroxy 2-{6-[(6-fluoro-quinolin-2-ylmethyl)-amino]-3-aza-bicyclo[3.1.0]hex-3-yl}pyrimidine-5-carboxamide]
Solid form by XRPD after static storage ([1]; 25° C./97% RH): converted to Mesylate Form 1 | Solid form by XRPD after static storage ([1]; 40° C./75% RH): converted to Mesylate Form 1

O=C(NO)c1cnc(N2CC3C(C2)C3NCc2ccc3cc(F)ccc3n2)nc1 (stereo not shown) [Mesylate Form 9, N-hydroxy 2-{6-[(6-fluoro-quinolin-2-ylmethyl)-amino]-3-aza-bicyclo[3.1.0]hex-3-yl}pyrimidine-5-carboxamide]
Appearance after static storage ([1]; 25° C./97% RH): Sample appeared wet-white solid still present | Solid form by XRPD after static storage ([1]; 25° C./97% RH): Poorly crystalline-Mesylate Form 1 | Appearance after static storage ([1]; 40° C./75% RH): color change to yellow; also recorded: Sample appeared ‘damp’-yellow solid present | Solid form by XRPD after static storage ([1]; 40° C./75% RH): Mesylate Form 1

O=C(NO)c1cnc(N2CC3C(C2)C3NCc2ccc3cc(F)ccc3n2)nc1 (stereo not shown) [Mesylate Form 6, N-hydroxy 2-{6-[(6-fluoro-quinolin-2-ylmethyl)-amino]-3-aza-bicyclo[3.1.0]hex-3-yl}pyrimidine-5-carboxamide]
Solid form by XRPD after static storage ([1]; 25° C./97% RH): converted to Mesylate Form 1 | Solid form by XRPD after static storage ([1]; 40° C./75% RH): converted to Mesylate Form 1

O=C(NO)c1cnc(N2C[C@@H]3[C@H](C2)[C@H]3NCc2ccc3cc(F)ccc3n2)nc1 [Mesylate Form 4, N-hydroxy 2-{6-[(6-fluoro-quinolin-2-ylmethyl)-amino]-3-aza-bicyclo[3.1.0]hex-3-yl}pyrimidine-5-carboxamide]
HPLC purity after static storage ([1]; 25° C./97% RH): 99.5% | Solid form by XRPD after static storage ([1]; 25° C./97% RH): conversion to Mesylate Form 1; also recorded: converted to Mesylate Form 1 | HPLC purity after static storage ([1]; 40° C./75% RH): 99.4% | Water uptake, first sorption cycle [2]: 0.7% | Starting water content in GVS [2]: 9.4% | Gradual water loss, desorption cycle 1 ([2]; down to 20% RH): 0.8% | XRPD post-GVS (solid form) [2]: conversion to Mesylate Form 1; also recorded: Post-GVS: Converted to Mesylate Form 1 by XRPD | Thermodynamic solubility in FaSSGF [3]: 24000 µg/mL

O=C(NO)c1cnc(N2C[C@@H]3[C@H](C2)[C@H]3NCc2ccc3cc(F)ccc3n2)nc1 [Free Base Form A, N-hydroxy 2-{6-[(6-fluoro-quinolin-2-ylmethyl)-amino]-3-aza-bicyclo[3.1.0]hex-3-yl}pyrimidine-5-carboxamide]
IDR in FaSSGF [4]: 1.1 mg/min/cm^2 | solubility at 24 h ([5]; thermodynamic from solid, deionized water, 25° C., 24 hours, maximum final concentration 40 mg/ml of parent free-form): 1 µg/mL (≈ 2.54 µM) | pH of saturated solution [5]: (pH = 7.4)

O=C(NO)c1cnc(N2C[C@@H]3[C@H](C2)[C@H]3NCc2ccc3cc(F)ccc3n2)nc1 [Free Base Form B, N-hydroxy 2-{6-[(6-fluoro-quinolin-2-ylmethyl)-amino]-3-aza-bicyclo[3.1.0]hex-3-yl}pyrimidine-5-carboxamide]
IDR in FaSSGF [4]: 1.8 mg/min/cm^2 | Solubility in water ([5]; deionized water, 25° C., 24 hours, maximum final concentration 40 mg/ml of parent free-form): 1 µg/mL (≈ 2.54 µM) | pH of saturated solution [5]: (pH = 7.4)

O=C(NO)c1cnc(N2C[C@@H]3[C@H](C2)[C@H]3NCc2ccc3cc(F)ccc3n2)nc1 [Mesylate Form 5, N-hydroxy 2-{6-[(6-fluoro-quinolin-2-ylmethyl)-amino]-3-aza-bicyclo[3.1.0]hex-3-yl}pyrimidine-5-carboxamide]
HPLC purity after static storage ([1]; 25° C./97% RH): 99.5% | Solid form by XRPD after static storage ([1]; 25° C./97% RH): remained as Mesylate Form 5; also recorded: Unchanged: Mesylate Form 5 | HPLC purity after static storage ([1]; 40° C./75% RH): 99.5% | Solid form by XRPD after static storage ([1]; 40° C./75% RH): remained as Mesylate Form 5; also recorded: Unchanged: Mesylate Form 5 | Hygroscopicity by GVS [2]: hygroscopic | XRPD post-GVS (solid form) [2]: remaining unchanged; also recorded: stable after GVS analysis; also recorded: XRPD Post-GVS: Mesylate Form 5 | Solubility residue (solid form) [3]: new solubility residue patterns

O=C(NO)c1cnc(N2C[C@@H]3[C@H](C2)[C@H]3NCc2ccc3cc(F)ccc3n2)nc1 [Mesylate Form 2, N-hydroxy 2-{6-[(6-fluoro-quinolin-2-ylmethyl)-amino]-3-aza-bicyclo[3.1.0]hex-3-yl}pyrimidine-5-carboxamide]
Solid form by XRPD after static storage ([1]; 25° C./97% RH): unchanged; also recorded: Mesylate Form 2 | Solid form by XRPD after static storage ([1]; 25° C./97% RH, listed as Form 2): stable after 1 week | Solid form by XRPD after static storage ([1]; 40° C./75% RH): unchanged; also recorded: Mesylate Form 2 | Solid form by XRPD after static storage ([1]; 40° C./75% RH, listed as Form 2): stable after 1 week | Hygroscopicity by GVS [2]: slightly hygroscopic | Hygroscopicity by GVS ([2]; listed as Form 2): slightly hygroscopic | XRPD post-GVS (solid form) [2]: unchanged; also recorded: XRPD Post-GVS: Mesylate Form 2

O=C(NO)c1cnc(N2CC3C(C2)C3NCc2ccc3cc(F)ccc3n2)nc1 (stereo not shown) [Mesylate Form 8, N-hydroxy 2-{6-[(6-fluoro-quinolin-2-ylmethyl)-amino]-3-aza-bicyclo[3.1.0]hex-3-yl}pyrimidine-5-carboxamide]
Solid form by XRPD after static storage ([1]; 25° C./97% RH): converted to Mesylate Form 1 | Solid form by XRPD after static storage ([1]; 40° C./75% RH): converted to Mesylate Form 1

O=C(NO)c1cnc(N2CC3C(C2)C3NCc2ccc3cc(F)ccc3n2)nc1 (stereo not shown) [amorphous mesylate salt, N-hydroxy 2-{6-[(6-fluoro-quinolin-2-ylmethyl)-amino]-3-aza-bicyclo[3.1.0]hex-3-yl}pyrimidine-5-carboxamide]
Solid form by XRPD after static storage ([1]; 25° C./97% RH): Amorphous, with low-level peak at 3.7° 2θ | Solid form by XRPD after static storage ([1]; 25° C./97% RH, listed as amorphous): largely amorphous | Solid form by XRPD after static storage ([1]; 40° C./75% RH): Amorphous, with low-level peak at 3.7° 2θ | Solid form by XRPD after static storage ([1]; 40° C./75% RH, listed as amorphous): largely amorphous

O=C(NO)c1cnc(N2C[C@@H]3[C@H](C2)[C@H]3NCc2ccc3cc(F)ccc3n2)nc1 [Mesylate Form 3, N-hydroxy 2-{6-[(6-fluoro-quinolin-2-ylmethyl)-amino]-3-aza-bicyclo[3.1.0]hex-3-yl}pyrimidine-5-carboxamide]
HPLC purity after static storage ([1]; 25° C./97% RH): 96.6% | Solid form by XRPD after static storage ([1]; 25° C./97% RH): remained unchanged; also recorded: Mesylate Form 3 | Solid form by XRPD after static storage ([1]; 25° C./97% RH, listed as Form 3): remained as Mesylate Form 3 | HPLC purity after static storage ([1]; 40° C./75% RH): 97.0% | Solid form by XRPD after static storage ([1]; 40° C./75% RH): conversion to the sesquihydrate Mesylate Form 5 | Solid form by XRPD after static storage ([1]; 40° C./75% RH, listed as Form 3): convert to Mesylate Form 5 | Water loss, desorption cycle 1 ([2]; 30-20% RH): Desorption Cycle 1 22% water loss from 30-20% RH | Water uptake, first sorption cycle [2]: 2% | Water content on desorption cycle 1 ([2]; at 30% RH): 24.3% | Starting water content in GVS [2]: 25.1% | XRPD post-GVS (solid form) [2]: XRPD Post-GVS: Poorly crystalline broad reflections may match | Solubility residue (solid form) [3]: new solubility residue patterns

O=C(NO)c1cnc(N2C[C@@H]3[C@H](C2)[C@H]3NCc2ccc3cc(F)ccc3n2)nc1 [Compound 1, N-hydroxy-2-{6-[(6-fluoro-quinolin-2-ylmethyl)-amino]-3-aza-bicyclo[3.1.0]hex-3-yl}pyrimidine-5-carboxamide]
Solubility in water ([5]; deionized water, 25° C., 24 hours, maximum final concentration 40 mg/ml of parent free-form, listed as Free base): essentially insoluble in water
